Target: T1, p53 Y220C (Homo sapiens, UniProt P04637, Y220C)
T1 construct: The recombinant protein was a truncation mutant containing only amino acids 94-312 of p53; made in house; host or cells: E. coli
Assay: In vitro DNA binding activity assay (HTRF / TR-FRET): stabilization of p53 Y220C and increase of its DNA binding activity
Assay type: biochemical
Conditions: recombinant His-tagged p53 Y220C DNA binding domain (aa 94-312), biotin-labeled consensus DNA, incubated at 27° C. or 29° C. for 60 min
Method in brief: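 Homogeneous time-resolved fluorescence with E. coli-derived p53 Y220C and biotinylated consensus DNA. Room-temperature incubations of 15 and 20 min precede reading. SC150 denotes the compound concentration required for 50% increased DNA binding.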

T1 sequence (P04637 94-312, change not shown): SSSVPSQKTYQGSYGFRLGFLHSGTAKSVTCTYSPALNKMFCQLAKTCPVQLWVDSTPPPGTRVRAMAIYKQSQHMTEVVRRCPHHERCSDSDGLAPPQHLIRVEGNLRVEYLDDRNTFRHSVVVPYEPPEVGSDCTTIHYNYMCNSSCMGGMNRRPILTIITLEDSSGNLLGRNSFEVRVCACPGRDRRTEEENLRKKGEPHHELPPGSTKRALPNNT

Row | Structure (SMILES) | SC150 (concentration of the compound required to increase the DNA binding activity by 50%)
1 | CN(C)[C@H]1CC[C@H](Nc2cccc3c2cc(C#CCNc2ccc(S(C)(=O)=O)cc2OCC#N)n3CC(F)(F)F)CC1 [Compound 81A, 2-(5-methanesulfonyl-2-{[3-(4-{[(1R,4R)-4-(dimethylamino)cyclohexyl]amino}-1-(2,2,2-trifluoro-ethyl)-1H-indol-2-yl)prop-2-yn-1-yl]amino}phenoxy)acetonitrile] | + (+ = 0 μM ≤ SC150 < 0.05 μM)
2 | COCC(O)CN1CCC(Nc2cccc3c2cc(C#CCNc2ccc(S(C)(=O)=O)cc2C(F)(F)F)n3CC(F)(F)F)CC1 (centres unmarked) [Compound 708A, 1-(4-{[2-(3-{[4-methanesulfonyl-2-(trifluoromethyl)phenyl]amino}prop-1-yn-1-yl)-1-(2,2,2-trifluoroethyl)-1H-indol-4-yl]amino}piperidin-1-yl)-3-methoxypropan-2-ol] | ++ (++ = 0.05 μM ≤ SC150 < 0.1 μM)

— patent US12428406B2 (PMV Pharmaceuticals, Inc., priority 2019, dated 2025)
